In US8980887B2, “2-aryl imidazo[1,2-a]pyridine-3-acetamide derivatives, preparation methods and uses thereof” (Institute of Pharmacology, priority 2010, dated 2015):

Tests used:
[1] = biological target: TSPO protein separated and purified from rat heart (Rattus norvegicus (Rat), UniProt P16257); assay: TSPO and radioligand (3H-PK11195) competitive binding test; conditions: for Inhibition rate (%): n = 6 times; for IC50 / Ki: 9 gradient concentrations, plotting and fitting
Experimental: In the present test, TSPO protein separated and purified from rat heart was used as screening target, via competitive binding test with radioligand (^3H-PK11195), to screen TSPO ligand compounds.
Wister rats, 220-260 g, female and male, were sacrificed by decapitation and the rat heart were rapidly separated, weighed and to which homogenized in 10 times volume of Tris-HCl buffer solution (50 mM Tris-HCl, 5 mM MgCl2, 1 mM EDTA, 0.5% (W/V) BSA, 1 mM PMSF, 3 μg/ml proteinase inhibitor, 0.1% NaN3, 0.32M sucrose, pH 7.4) at 15,000 rpm for 30 s, total 5 times. The homogenate was centrifuged under 1000×g for 10 minutes and the supernatant was then centrifuged under 30000×g for 20 minutes. The precipitate was collected, and resuspended with 10 times volume of Tris-HCl buffer solution (pH 7.4) relative to the original weight, then centrifuged under 30000×g for 20 minutes. The precipitate was washed with the same buffer solution, centrifuged under 30000×g for 20 minutes and the precipitate was suspended with the above buffer solution. After sub-packaged (the whole operation procedures were performed under ice bath), the product was stored at −80° C.
3) Competitive Binding Test of Drug to the Receptor (Rat Heart TSPO) and Radioligand (^3H-PK11195):
(1) tubes were placed in reaction condition of 30° C.
(2) all tubes were added with 20 μg of receptor protein in order;
(3) the test tubes were added in order with 20 μL of drugs in certain concentrations;
(4) the non-specific binding tubes were added with 20 μL of non-tagged ligand (PK11195), the final concentration of the non-tagged ligand was 0.1 mM, pre-reacted for 30 min;
(5) all tubes were added in order with 25 μL ^3H-PK11195, the final concentration of the labeled ligand was 1.5 nM;
(6) Tris-HCl Buffer pH7.4 was used to complement the reaction volumes of all tubes to reach 200 μL;
(7) the reaction was performed under 30° C. reaction condition for 1 h;
(8) Then samples were applied to 49-type glass fibre filter, vacuum suction filtered, then washed with 2 ml ice-cold Tris-HCl buffer solution (50 mM Tris-HCl buffer solution, 1 mM EDTA, 5 mM MgCl2, 1 mM PMSF, 0.1% NaN3, 3 μg/ml proteinase inhibitor, pH 7.4). The filter was dried and placed in a scintillation vial with 1 ml of scintillation fluid. The radio-activity was measured by a scintillation counter.

| Structure (SMILES) | melting point [°C] | Inhibition rate (%) ([1]; 1 × 10^−5M) | Inhibition rate (%) ([1]; 1 × 10^−7M) | Inhibition rate (%) ([1]; 1 × 10^−9M) | IC50 [1] [nM] | Ki [1] [nM] |
| --- | --- | --- | --- | --- | --- | --- |
| CCN(Cc1ccncc1)C(=O)Cc1c(-c2ccc(C)cc2)nc2ccc(C)cn12.Cl [Compound 27, N-ethyl-N-(4-pyridinylmethyl)-2-(4-methylphenyl)-6-methylimidazo[1,2-a]pyridine-3-acetamide.hydrochloride] | 222 to 224 | 91 | 65 | 0 |  |  |
| CCN(Cc1ccccc1)C(=O)Cc1c(-c2ccc(OC)cc2)nc2cc(C)ccn12 [Compound 19, N-benzyl-N-ethyl-2-(4-methoxyphenyl)-7-methylimidazo[1,2-a]pyridine-3-acetamide] | 175 to 178 | 94 | 76 | 0 |  |  |
| COCCN(Cc1cccnc1)C(=O)Cc1c(-c2ccc(C)cc2)nc2cc(C)ccn12.Cl [Compound 18, N-(2-methoxyethyl)-N-(3-pyridinylmethyl)-2-(4-methylphenyl)-7-methylimidazo[1,2-a]pyridine-3-acetamide.hydrochloride] | 224 to 226 | 69 | 32 | 0 |  |  |
| CCN(Cc1ccccn1)C(=O)Cc1c(-c2ccc(OC)cc2)nc2cc(C)ccn12.Cl [Compound 20, N-ethyl-N-(2-pyridinylmethyl)-2-(4-methoxyphenyl)-7-methylimidazo[1,2-a]pyridine-3-acetamide.hydrochloride] | 228 to 230 | 61 | 63 | 0 |  |  |
| CCN(Cc1cccnc1)C(=O)Cc1c(-c2ccc(Cl)cc2)nc2cc(C)ccn12.Cl [Compound 3, N-ethyl-N-(3-pyridinylmethyl)-2-(4-chlorophenyl)-7-methylimidazo[1,2-a]pyridine-3-acetamide.hydrochloride] | 236 to 238 | 100 | 25 | 0 |  |  |
| CCN(Cc1ccncc1)C(=O)Cc1c(-c2ccc(C)cc2)nc2cc(C)ccn12.Cl [Compound 16, N-ethyl-N-(4-pyridinylmethyl)-2-(4-methylphenyl)-7-methylimidazo[1,2-a]pyridine-3-acetamide.hydrochloride] | 253 to 255 | 72 | 41 | 0 |  |  |
| CCN(Cc1ccccc1)C(=O)Cc1c(-c2ccc(Cl)c(Cl)c2)nc2cc(C)ccn12 [Compound 7, N-benzyl-N-ethyl-2-(3,4-dichlorophenyl)-7-methylimidazo[1,2-a]pyridine-3-acetamide] | 180 to 182 | 99 | 72 | 10 | 116 | 49.2 |
| COCCN(Cc1cccnc1)C(=O)Cc1c(-c2ccc(OC)cc2)nc2cc(C)ccn12.Cl [Compound 24, N-(2-methoxyethyl)-N-(3-pyridinylmethyl)-2-(4-methoxyphenyl)-7-methylimidazo[1,2-a]pyridine-3-acetamide.hydrochloride] | 243 to 245 | 17 | 3 | 0 |  |  |
| COCCN(Cc1cccnc1)C(=O)Cc1c(-c2ccc(Cl)c(Cl)c2)nc2cc(C)ccn12.Cl [Compound 12, N-(2-methoxyethyl)-N-(3-pyridinylmethyl)-2-(3,4-dichlorophenyl)-7-methylimidazo[1,2-a]pyridine-3-acetamide.hydrochloride] | 235 to 237 | 80 | 20 | 0 |  |  |
| CCN(Cc1ccncc1)C(=O)Cc1c(-c2ccc(OC)cc2)nc2cc(C)ccn12.Cl [Compound 22, N-ethyl-N-(4-pyridinylmethyl)-2-(4-methoxyphenyl)-7-methylimidazo[1,2-a]pyridine-3-acetamide.hydrochloride] | 239 to 242 | 63 | 9 | 4 |  |  |
| CCN(Cc1cccnc1)C(=O)Cc1c(-c2ccc(C)cc2)nc2cc(C)ccn12.Cl [Compound 15, N-ethyl-N-(3-pyridinylmethyl)-2-(4-methylphenyl)-7-methylimidazo[1,2-a]pyridine-3-acetamide.hydrochloride] | 251 to 253 | 90 | 15 | 0 |  |  |
| COCCN(Cc1ccccn1)C(=O)Cc1c(-c2ccc(C)cc2)nc2cc(C)ccn12.Cl [Compound 17, N-(2-methoxyethyl)-N-(2-pyridinylmethyl)-2-(4-methylphenyl)-7-methylimidazo[1,2-a]pyridine-3-acetamide.hydrochloride] | 239 to 240 | 83 | 9 | 0 |  |  |
| CN1C(=O)CN=C(c2ccc(Cl)cc2)c2cc(Cl)ccc21 [Compound R05-4864, 4′-chlorodiazepam, reference compound] |  | 100 | 82 | 57 |  |  |
| CCN(Cc1ccccn1)C(=O)Cc1c(-c2ccc(C)cc2)nc2cc(C)ccn12.Cl [Compound 14, N-ethyl-N-(2-pyridinylmethyl)-2-(4-methylphenyl)-7-methylimidazo[1,2-a]pyridine-3-acetamide.hydrochloride] | 218 to 220 | 97 | 66 | 14 | 91 | 38.7 |
| COCCN(CCN1CCOCC1)C(=O)Cc1c(-c2ccc(C)cc2)nc2cc(C)ccn12.Cl [Compound 25, N-(2-methoxyethyl)-N-(2-morpholinylethyl)-2-(4-methylphenyl)-7-methylimidazo[1,2-a]pyridine-3-acetamide.hydrochloride] | 165 to 167 | 31 | 0 | 0 |  |  |
| CCN(Cc1ccccc1)C(=O)Cc1c(-c2ccc(Cl)cc2)nc2cc(C)ccn12 [Compound 1, N-benzyl-N-ethyl-2-(4-chlorophenyl)-7-methylimidazo[1,2-a]pyridine-3-acetamide] | 192 to 193 | 100 | 87 | 12 |  |  |
| CCN(Cc1cccnc1)C(=O)Cc1c(-c2ccc(OC)cc2)nc2cc(C)ccn12.Cl [Compound 21, N-ethyl-N-(3-pyridinylmethyl)-2-(4-methoxyphenyl)-7-methylimidazo[1,2-a]pyridine-3-acetamide.hydrochloride] | 230 to 232 | 43 | 11 | 0 |  |  |
| CCN(Cc1ccccn1)C(=O)Cc1c(-c2ccc(Cl)cc2)nc2cc(C)ccn12.Cl [Compound 2, N-ethyl-N-(2-pyridinylmethyl)-2-(4-chlorophenyl)-7-methylimidazo[1,2-a]pyridine-3-acetamide.hydrochloride] | 178 to 180 | 100 | 59 | 0 |  |  |
